Experimental data taken from ChEMBL document CHEMBL6074679, “Diastereoselective synthesis and biological evaluation of new fluorine-containing α-aminophosphonates as anticancer agents and scaffold to human urokinase plasminogen activator inhibitors” (Eur J Med Chem, 2025).
pIC50: −log10 of the molar value.

Assays:
U-87 MG = assay: Cytotoxicity against human U-87 MG cells incubated for 48 hrs by MTT assay; type: functional, cell-based, U-87MG ATCC
U-251 = assay: Cytotoxicity against human U-251MG cells incubated for 48 hrs by MTT assay; type: functional, cell-based; conditions: U-251, 48 h
U-118-MG = assay: Cytotoxicity against human U-118 MG cells incubated for 48 hrs by MTT assay; type: functional, cell-based
OVCAR-3 = assay: Cytotoxicity against human OVCAR-3 cells incubated for 48 hrs by MTT assay; type: functional, cell-based; conditions: OVCAR-3, 48 h
SK-OV-3 = assay: Cytotoxicity against human SK-OV-3 cells incubated for 48 hrs by MTT assay; type: functional, cell-based; conditions: SK-OV-3, 48 h
HepG2 = assay: Cytotoxicity against human HepG2 cells incubated for 48 hrs by MTT assay; type: functional, cell-based; conditions: HepG2, 48 h
Caco-2 = assay: Cytotoxicity against human Caco-2 cells incubated for 48 hrs by MTT assay; type: functional, cell-based; conditions: Caco-2, 48 h
HeLa = assay: Cytotoxicity against human HeLa cells incubated for 48 hrs by MTT assay; type: functional, cell-based
MDA-MB-231 = assay: Cytotoxicity against human MDA-MB-231 cells incubated for 48 hrs by MTT assay; type: functional, cell-based; conditions: MDA-MB-231, 48 h
A549 = assay: Cytotoxicity against human A549 cells incubated for 48 hrs by MTT assay; type: functional, cell-based; conditions: A549, 48 h
[1] = Cytotoxicity against human MRC5 cells incubated for 48 hrs by MTT assay; type: toxicity, cell-based
[2] = target: Urokinase-type plasminogen activator (Homo sapiens, UniProt P00749); assay: Inhibition of human urokinase uPA using Z-Gly-Gly-Arg-AMC as substrate by fluorescence plate reader assay

SMILES | pIC50 (U-87 MG) | pIC50 (U-251) | pIC50 (U-118-MG) | pIC50 (OVCAR-3) | pIC50 (SK-OV-3) | pIC50 (HepG2) | pIC50 (Caco-2) | pIC50 (HeLa) | pIC50 (MDA-MB-231) | pIC50 (A549) | IC50 at 48 h [1] | pIC50 [2]
CCOP(=O)(OCC)C(N[C@H](C)c1ccc(OC)cc1)c1c(F)c(F)c(F)c(F)c1F (stereo partly specified) | 5.03 | 4.10 | 4.84 | < 3.30 | 5.27 | 4.34 | 5.76 | 5.41 | 4.72 | 4.35 | 27.2 µM | 3.38
CCOP(=O)(OCC)C(N[C@@H](C)C(C)(C)C)c1ccc(F)cc1 (stereo partly specified) | 4.96 | 4.61 | 4.19 | 4.15 | 4.82 | 4.46 | 4.29 | 4.89 | 4.23 | 4.31 | 13.8 µM | 
COP(=O)(OC)C(N[C@H](C)c1ccccc1)c1c(F)c(F)c(F)c(F)c1F (stereo partly specified) | 5.26 | 4.47 | 4.29 | 4.88 | 4.55 | 4.26 | 5.22 | 5.39 | 4.03 | 4.30 | 84.1 µM | 
CC(C)OP(=O)(OC(C)C)C(N[C@@H](C)C(C)(C)C)c1ccc(F)cc1F (stereo partly specified) | 5.11 | 5.40 | 3.83 | 3.71 | 5.06 | 4.63 | 4.98 | 5.27 | 5.00 | 4.14 | 47.8 µM | 
COc1ccc([C@@H](C)NC(c2c(F)cc(F)cc2F)P(=O)(OC)OC)cc1 (stereo partly specified) | 4.65 | 4.32 | 4.16 | 4.10 | 5.38 | 4.88 | 4.83 | 4.76 | 4.57 | 4.48 | 5.86 µM | 
CCOP(=O)(OCC)C(N[C@@H](C)C(C)(C)C)c1ccc(F)cc1F (stereo partly specified) | 4.98 | 4.31 | 4.45 | 4.32 | 3.96 | 4.74 | 4.56 | 5.35 | 5.25 | 4.74 | 107 µM | 
CCOP(=O)(OCC)C(N[C@@H](C)C(C)(C)C)c1c(F)cc(F)cc1F (stereo partly specified) | 4.94 | 5.12 | 4.39 | 4.26 | 4.78 | 4.33 | 6.41 | 4.97 | 4.41 | 4.48 | 36.5 µM | 3.17
COc1ccc([C@@H](C)NC(c2ccc(F)cc2F)P(=O)(OC)OC)cc1 (stereo partly specified) | 5.00 | 4.72 | 3.74 | 4.00 | 5.43 | 4.23 | 4.55 | 5.60 | 4.96 | 4.27 | 10.6 µM | 3.83
COc1ccc([C@@H](C)NC(c2ccc(F)cc2F)P(=O)(OC(C)C)OC(C)C)cc1 (stereo partly specified) | 5.43 | 5.45 | 4.17 | 5.45 | 5.03 | 4.34 | 6.14 | 5.29 | 4.09 | 5.54 | 1.82 µM | 3.21
COP(=O)(OC)C(NC(C)C(C)(C)C)c1ccc(F)cc1 (racemic) | 4.40 | 4.78 | 4.34 | 3.98 | 5.06 | 5.25 | 4.79 | 5.20 | 3.64 | 5.10 | 90.7 µM | 
O=c1[nH]c(=O)n([C@H]2C[C@H](O)[C@@H](CO)O2)cc1F [FLOXURIDINE] | 4.73 | 4.75 |  | 4.61 | 4.89 | 4.42 |  |  | 5.25 | 4.64 |  | 
